≈ marks a conversion by molar mass, not a printed value.
System: Propionibacterium acnes
Test: Sensitivity of peroxides versus dibenzoyl peroxide on Propionibacterium acnes: MIC, dilution method in agar medium (CLSI M11A7)
Assay type: cell-based
Details: Cutibacterium acnes, 48 h
[1] = P. acnes strain 998, read after 48 hours anaerobic incubation
[2] = P. acnes strain 1044, read after 48 hours anaerobic incubation
[3] = P. acnes strain 1045, read after 48 hours anaerobic incubation
[4] = P. acnes strain 1201, read after 48 hours anaerobic incubation
[5] = P. acnes strain 3069, read after 48 hours anaerobic incubation
[6] = P. acnes strain CSS 2913, read after 48 hours anaerobic incubation
[7] = P. acnes strain CSS 2971, read after 48 hours anaerobic incubation
[8] = P. acnes strain CSS 3288, read after 48 hours anaerobic incubation
[9] = P. acnes strain UAA 2281, read after 48 hours anaerobic incubation
[10] = P. acnes strain UAA 2285, read after 48 hours anaerobic incubation

| SMILES | MIC [1] [µg/mL] | MIC [2] [µg/mL] | MIC [3] [µg/mL] | MIC [4] [µg/mL] | MIC [5] [µg/mL] | MIC [6] [µg/mL] | MIC [7] [µg/mL] | MIC [8] [µg/mL] | MIC [9] [µg/mL] | MIC [10] [µg/mL] |
| --- | --- | --- | --- | --- | --- | --- | --- | --- | --- | --- |
| CCCCCCCC(=O)c1ccc(OC(C)=O)c(C(=O)OOC(=O)c2ccccc2)c1 [Example 1, (2-acetoxy-5-octanoylbenzoyl)benzoyl peroxide] | 1280 (≈ 3000 µM) | 320 (≈ 750 µM) | 320 (≈ 750 µM) | 320 (≈ 750 µM) | 1280 (≈ 3000 µM) | 320 (≈ 750 µM) | 320 (≈ 750 µM) | 320 (≈ 750 µM) | 320 (≈ 750 µM) | 320 (≈ 750 µM) |
| O=C(OOC(=O)c1ccccc1)c1ccccc1 [Benzoyl peroxide] | 640 (≈ 2640 µM) | 640 (≈ 2640 µM) | 640 (≈ 2640 µM) | 640 (≈ 2640 µM) | 640 (≈ 2640 µM) | 640 (≈ 2640 µM) | 640 (≈ 2640 µM) | 640 (≈ 2640 µM) | 640 (≈ 2640 µM) | 640 (≈ 2640 µM) |
